Laboratory results published in patent US20200278355A1, “CONJUGATED PROTEINS AND USES THEREOF” (THE SCRIPPS RESEARCH INSTITUTE, priority 2017, published 2020).

Test system: cysteines in NSCLC cell proteomes (H460 cells)
Assay: isoTOP-ABPP of compound-treated H460 cells, proteome-wide
Format: cell-based, human
Details: KEAP1-mutant NSCLCs
Protocol: For analysis of NR0B1 ligands or control compound reactivity, H460 cells or H460 cells expressing luciferase in a 10 cm plate were incubated with indicated compounds in serum/dye-free RPMI for 3 hours at 37° C. Cells were washed once ice-cold PBS and lysed in 1% Triton X-100 dissolved in PBS with protease inhibitors (Sigma) by sonication. Samples were clarified by centrifugation for 10 min at 16,000×g. Lysate was adjusted to 1.5 mg ml^−1 in 500 μL.
Samples were labeled for 1 h at ambient temperature with 100 μM iodoacetamide alkyne (1, IA-alkyne, 5 μL of 10 mM stock in DMSO). Samples were conjugated by copper-catalyzed azide-alkyne cycloaddition (CuAAC) to isotopically labeled, TEV-cleavable tags (TEV-tags). Heavy CuAAC reaction mixtures was added to the DMSO-treated or shGFP control samples and light CuAAC reaction mixture was added to compound-treated or shNRF2 samples. The CuAAC reaction mixture consisted of TEV tags (light or heavy, 10 μL of 5 mM stocks in DMSO, final concentration=100 μM), 1 mM tris(2-carboxyethyl)phosphine hydrochloride (TCEP; fresh 50× stock in water, final concentration=1 mM), ligand (17× stock in DMSO:t-butanol 1:4, final concentration=100 μM) and 1 mM CuSO4 (50× stock in water, final concentration=1 mM). The samples were allowed to react for 1 h at which point the samples were centrifuged (16,000×g, 5 min, 4° C.). […]

SMILES | overall proteomic selectivity
O=C(CCl)N(Cc1cccc(Cl)c1F)c1ccc(Cl)nc1 [BPK-26, 2-chloro-N-(3-chloro-2-fluorobenzyl)-N-(6-chloropyridin-3-yl)acetamide] | good overall proteomic selectivity
O=C(c1ccc(N2CCOCC2)cc1)N1CCCC(N(Cc2ccccc2)C(=O)CCl)CC1 (centres unmarked) [BPK-29, N-benzyl-2-chloro-N-(1-(4-morpholinobenzoyl)azepan-4-yl)acetamide] | good overall proteomic selectivity
